In patent US12110282B2, “Thiobenzopyrans and their use in preparation of drugs for treatment of rheumatoid arthritis” (HC SYNTHETIC PHARMACEUTICAL CO., LTD., priority 2020, dated 2024):
Structures can show the parent of a compound that is named as a salt.

Key:
[1] = tested on: adjuvant arthritis (AA) of rats; test: anti-arthritic activity in the animal model of adjuvant arthritis (AA) of rats, foot swelling by drainage method; type: in vivo; parameters: key to The average swelling degree before administration (X ± s) / Average swelling degree after administration (X ± s): (toe volume after − before inflammation)/volume before; fraction; conditions: rat adjuvant arthritis; for The average swelling degree before administration (X ± s): foot swelling degree before administration (baseline); for The average swelling degree before administration (X ± s) / Average swelling degree after administration (X ± s): n=10; for Average swelling degree after administration (X ± s): gavage 50 μg/dose/day for consecutive 5 days
Description: The study on the anti-arthritic activity of the compounds of the present disclosure was conducted based on the animal model of adjuvant arthritis (AA) of rats and on the establishment of adjuvant arthritis of rats. The rats were divided into 14 groups, with 10 rats in each group, and the rats were administered by gavage the compound of the present disclosure, a blank control, and a positive control substance of Iguratimod at a dose of 50 μg/dose/day for consecutive 5 days. A drainage method was used to determine the degree of foot swelling in rats of each group before and after administration, and the degree of foot swelling in rats before and after administration was calculated to determine whether the drug was effective.
Foot swelling degree X=(volume of the toe after inflammation−volume of toe before inflammation)/volume of the toe before inflammation×100%.

healthy rats = test: content of aminotransferase in the serum of healthy rats after oral administration for 15 days; type: in vivo; conditions: for ALT / AST: serum of healthy rats, oral administration for 15 days, n=10
Description: Elevated aminotransferase is a common side effect of Iguratimod. To investigate whether the compounds of the present disclosure have effects on aminotransferase, healthy rats were administered orally the compound of the present disclosure and Iguratimod for 15 days, respectively, and then the content of aminotransferase in the serum of rats was determined.

Row | Structure (SMILES) | The average swelling degree before administration (X ± s) [1] | Average swelling degree after administration (X ± s) [1] | ALT (healthy rats) | AST (healthy rats) | side effects (aminotransferase elevation) compared with Iguratimod (healthy rats; healthy rats, oral, conclusion in words) | anti-inflammatory effect compared with Iguratimod ([1]; conclusion in words)
1 | CS(=O)(=O)Nc1cc2scc(NC=O)c(=O)c2cc1Oc1ccccc1 [Compound 1 potassium salt] | 0.455 ± 0.0279 | 0.020 ± 0.0323 | 126 ± 10.05 U/L | 78 ± 8.74 U/L | – | –
2 | CS(=O)(=O)Nc1cc2scc(NC=O)c(=O)c2cc1Oc1ccccc1 [Compound 1 sodium salt] | 0.450 ± 0.0284 | 0.023 ± 0.0306 | 129 ± 10.18 U/L | 76 ± 9.22 U/L | – | –
3 | CS(=O)(=O)Nc1cc2scc(NC=O)c(=O)c2cc1Oc1ccccc1 [Compound 1, 3-formamido-7-methylsulfonamido-6-phe noxy-4H-I-thiobenzopyran-4-one] | 0.453 ± 0.0290 | 0.020 ± 0.0335 | 125 ± 10.24 U/L | 75 ± 8.22 U/L | – | –
4 | CS(=O)(=O)Nc1cc2scc(NC=O)c(=O)c2cc1Sc1ccccc1 [Compound 2 potassium salt] | 0.453 ± 0.0290 | 0.021 ± 0.0335 | 109 ± 9.11 U/L | 77 ± 9.02 U/L | – | –
5 | CS(=O)(=O)Nc1cc2scc(NC=O)c(=O)c2cc1Sc1ccccc1 [Compound 2 sodium salt] | 0.448 ± 0.0291 | 0.020 ± 0.0325 | 104 ± 9.05 U/L | 76 ± 9.56 U/L | – | –
6 | CS(=O)(=O)Nc1cc2scc(NC=O)c(=O)c2cc1Sc1ccccc1 [Compound 2, 3-formamido-7-methylsulfonamido-6-phenylthio-4H-1-thiobenzopyran-4-one] | 0.430 ± 0.0312 | 0.019 ± 0.0315 | 108 ± 9.43 U/L | 80 ± 9.28 U/L | further weaker side effects | –
7 | CS(=O)(=O)Nc1cc2scc(NC=O)c(=O)c2cc1[S+]([O-])c1ccccc1 (stereo not drawn) [Compound 3 potassium salt] | 0.454 ± 0.0277 | 0.023 ± 0.0330 | 141 ± 7.89 U/L | 89 ± 8.91 U/L | – | –
8 | CS(=O)(=O)Nc1cc2scc(NC=O)c(=O)c2cc1[S+]([O-])c1ccccc1 (stereo not drawn) [Compound 3 sodium salt] | 0.438 ± 0.0229 | 0.022 ± 0.0333 | 140 ± 8.83 U/L | 87 ± 9.06 U/L | – | –
9 | CS(=O)(=O)Nc1cc2scc(NC=O)c(=O)c2cc1[S+]([O-])c1ccccc1 (stereo not drawn) [Compound 3] | 0.449 ± 0.0305 | 0.025 ± 0.0339 | 143 ± 7.83 U/L | 90 ± 8.76 U/L | – | –
10 | CS(=O)(=O)Nc1cc2scc(NC=O)c(=O)c2cc1S(=O)(=O)c1ccccc1 [Compound 4 potassium salt] | 0.418 ± 0.0198 | 0.019 ± 0.0274 | 132 ± 8.79 U/L | 85 ± 6.87 U/L | – | –
11 | CS(=O)(=O)Nc1cc2scc(NC=O)c(=O)c2cc1S(=O)(=O)c1ccccc1 [Compound 4 sodium salt] | 0.435 ± 0.0290 | 0.018 ± 0.0303 | 130 ± 9.15 U/L | 83 ± 8.09 U/L | – | –
12 | CS(=O)(=O)Nc1cc2scc(NC=O)c(=O)c2cc1S(=O)(=O)c1ccccc1 [Compound 4, N-(7-(methylsulfonamido)-4-oxo-6-(phenylsulfonyl)-4H-thiobenzopyran-3-yl)carboxamide] | 0.425 ± 0.0247 | 0.017 ± 0.0305 | 133 ± 9.04 U/L | 79 ± 9.82 U/L | – | better anti-inflammatory effect
13 | CS(=O)(=O)Nc1cc2occ(NC=O)c(=O)c2cc1Oc1ccccc1 [Iguratimod, 3-formamido-7-methylsulfonamido-6-phenoxy-4H-1-benzopyran-4-one, reference compound] | 0.445 ± 0.0321 | 0.029 ± 0.0389 | 173 ± 9.86 U/L | 145 ± 10.98 U/L | – | –
